From publication PMC7026080, “Phenotypic high-throughput screening platform identifies novel chemotypes for necroptosis inhibition” (Cell Death Discovery, 2020) come the findings set out here.

In one data set the test system is L929 cells. In words: Long-term necroptosis inhibition in L929 cells + mTNF-α, 24 h, LDH release. The following applies: Mus musculus, 10 ng/mL mTNF-α, screening step 7, read-out: EC50 L929 + TNF-α (in vitro). Format: cell-based, murine. As to the method:
The ability of compounds to interfere with specific steps of the necroptosis pathway, as well as inherent cytotoxicity and long-term necroptosis inhibitory effects were evaluated using in vitro necroptosis models (Fig. S1). Firstly, the 110 compounds were tested for their ability to modulate TNF-α-induced MLKL phosphorylation, a key necroptotic effector downstream of RIPK3[13]. […] Membrane integrity was evaluated by both AK and LDH release to exclude potential false positives.
Whole cell extracts were analysed by immunoblotting. […] Data represent mean values ± SEM of three independent experiments normalized to untreated control. Cell viability was assessed using a colorimetric-based readout for LDH release.
Whole cell extracts were analysed by immunoblotting. Data shown are representative blots and quantification of p-MLKL/MLKL ratio from one single experiment, in fold-change from control. […] Data represent mean values ± SEM of three independent experiments normalized to untreated control. Cell viability was assessed using a colorimetric-based readout for LDH release. c In vitro screening results for seven selected compounds at different stages of the HTS cascade. TEXT PRINTED IN THE PICTURE: (C) Nec-1: EC50 [μM] L929 + TNF-α (in vitro): 1.25 (Screening Step: 1; Time Point: 8 h); EC50 [μM] L929 + TNF-α (in vitro): 1.13 (Screening Step: 7; Time Point: 24 h); EC50 [μM] […]

Data set [1] can be described thus: Caco-2 cell-based permeability assay. Format: in vitro ADME. The conditions noted are these: human.
The nature of data set [2]: Mouse pharmacokinetics, i.v. The conditions noted are these: plasma, iv, male C57BL/6J mice, 5 mg/kg i.v.; for AUC: read-out: Mouse AUC (in vivo); for Cmax: read-out: Mouse Cmax (in vivo); for clearance: read-out: Mouse clearance (in vivo) rate; for half-life: read-out: Mouse half-life (in vivo) T1/2 (converted); for Tmax: read-out: Tmax (in vivo). Format: in vivo. Here is the method: Pharmacokinetic measurements. Pharmacokinetic studies were performed in male C57BL/6J mice by Pharmaron (Pharmaron Beijing Co Ltd, Beijing, China). Compound (5 mg/kg body weight) was administered intravenously in vehicle (57% PBS, 32% DMSO, 4% PEG 400, 3% ethanol, 4% Tween 80). Blood samples obtained postdosing were collected in plastic microcentrifuge tubes containing EDTA-K2 and centrifuged at 4000 × g for 5 min to obtain plasma. The concentration of compound in plasma samples was determined using a liquid chromatography-tandem mass spectrometry (LC-MS/MS) method by monitoring transition from m/z 541 to 383 in ESI-positive mode. PK parameters were calculated by non-compartmental model using Phoenix WinNonlin v. 6.1 (Pharsight Corp, Certara, St. Louis, MO, USA).

On to `CN1C(=O)C(Cc2c[nH]c3ccccc23)NC1=S` (centres unmarked) [Nec-1, necrostatin-1], for which the EC50 in the data set on L929 cells is 1.13 µM. In data set [1], the efflux ratio is 0.36, the Papp A→B is 38 ×10⁻⁶ cm/s and the Papp B→A was 14 ×10⁻⁶ cm/s. Further, in data set [2], the AUC was determined as 3.21 µM·h, the Cmax stood at 11.3 µM, the clearance was found to be 101 mL/min/kg and the half-life was 26.4 min. In addition, the Tmax in data set [2] turned out to be 1.8 min.

In the case of `O=C(c1cnn(Cc2ccccc2)c1)N1CCOc2ccccc2C1` [SN-6109], in the data set on L929 cells, the half-maximal effective concentration (EC50) stood at 11.5 µM. For the same compound, in data set [1], the apparent permeability from apical to basolateral (Papp A→B) was 31 ×10⁻⁶ cm/s and the Papp B→A worked out at 16 ×10⁻⁶ cm/s. In data set [2], the exposure (AUC) is 2.34 µM·h, the Cmax turned out to be 10.2 µM, the clearance worked out at 107 mL/min/kg and the half-life is 18.6 min. Also, the Tmax in data set [2] came out at 1.8 min.
